Results on 6 molecules are retold here after patent US6890720B1, “Antigens derived from filaggrin and their use for diagnosing rheumatoid polyarthritis” (Biomerieux, priority 1996, dated 2005).

Square brackets hold non-standard residues; d marks the D form. Cit = NC(=O)NCCC[C@H](N)C(=O)O

Experiment [1] concerns anti-filaggrin autoantibodies (AFAs). The experiment can be described thus: ELISA of citrullinated and noncitrullinated peptides coated on microtiter plates. In kind it is binding, human. The protocol:
The reactivity of each citrullinated and noncitrullinated peptide was tested respectively in relation to a normal serum, to two sera from RA patients, to anti-filaggrin antibodies (AFAs) purified from a pool of 45 sera from RA patients and to anti-filaggrin antibodies purified from 12 sera from RA patients.
The wells of NUNC MAXISORP microtiter plates were respectively coated with the aid of the noncitrullinated and citrullinated peptides E-12-D (SEQ ID NO:6) and E-12-H (SEQ ID NO:5), diluted to a concentration of 5 μg/ml in a PBS buffer (pH: 7.4) and incubated overnight at 4° C. (final volume: […]). The wells were saturated for 30 minutes at 37° C. in PBS-Tween 20, 0.05%, 2.5% gelatin, 200 μl/well. The negative control serum (normal serum) was diluted 1/120. The antifilaggrin antibodies were diluted in PBS-Tween 20, 0.05%-0.5% gelatin (PBS TG) such that the final anti-filaggrin autoantibody concentrations are those indicated in the accompanying Table I. The negative control serum, the RA sera and the anti-filaggrin antibodies were added (final volume: 100 μl/well) and incubated for 1 hour at 37° C. and overnight at 4° C. Peroxidase-labeled goat antibodies anti-gamma heavy chains of the human immunoglobulins (marketed by the company SOUTHERN BIOTECHNOLOGIES) were added to each well (dilution in PBSTG: 1/2000, final volume: 100 μl/well) and incubated for 1 hour at 37° C.
The results presented in the accompanying Table I are given as a ratio of OD at 492 nm: citrullinated peptide signal/noncitrullinated peptide signal.

Experiment [2] deals with serum from a patient suffering from RA. As to the kind of experiment: Dot-blot of peptides and fil-gst before and after PAD, serum from an RA patient. In kind it is binding, human. The note with it: serum 1/2000. The protocol:
(§1) These 2 peptides, as well as fil-gst, were citrullinated by the action of PAD, for 30 minutes at 50° C., in the same reaction medium as that indicated in Example 2. The specific conditions for each peptide, and for the fil-gst are the following: • peptide S-47-S (SEQ ID NO:3): 4 mU/μmol arginine • peptide S-35-R (SEQ ID NO:4): 2.7 mU/μmol arginine • fil-gst as indicated in Example 2.
(§2) The reactivity of each peptide and that of fil-gst, before and after action of the enzyme, towards the monoclonal antibody AHF4, and the serum from a patient suffering from RA, is compared by dot-blot.
(§3) The operating conditions are the following: • 0.5 μg by deposition of each antigen (peptides, fil-gst, acido-neutral variants of filaggrin (AVF)) • nitrocellulose treatment 45 minutes at 80° C., before immunodetection • RA serum used at the dilution of 1/2000; monoclonal antibody AHF4 used at a concentration of 0.2 μg/ml

The subject of the next experiment is monoclonal antibody AHF4. As to the kind of experiment: Dot-blot of peptides and fil-gst before and after PAD, monoclonal antibody AHF4. Format: binding. The note with it: 0.5 μg antigen per deposit, AHF4 0.2 μg/ml. The protocol:
as §1, §2, §3

In experiment [3] the test system is anti-filaggrin monoclonal antibody AHF2. The experiment can be described thus: Immunoblot of fil-gst deiminated in vitro by PAD, revealed with monoclonal antibody AHF2. In kind it is binding. To be noted: AHF2 0.2 μg/ml. The protocol: (§4) The mixture of the 9 fragments is subjected to deimination in vitro by peptidylarginine deiminase.
(§5) A rabbit muscle peptidylarginine deiminase preparation (681 U/ml) marketed by TAKARA BIOMED EUROPE is used according to the protocol recommended by the manufacturer.
(§6) The operating conditions are the following: • reaction medium: 0.1 M Tris-HCl, 10 mM CaCl2, 5 mM DTT, pH 7.4; • enzyme/substrate ratio: 140 mU/μmol of filaggrin containing 10% arginine or 4 mU/μmol of arginine; • incubation: between 0 and 60 min at 50° C.; • termination of the reaction: heating 3 min in LAEMMLI buffer.
(§7) 1 μl of each sample is deposited on an electrophoresis gel (PHAST®-SDS gel 12.5% PHARMACIA), and the electrophoresis is carried out with the PHAST-SYSTEM® apparatus (PHARMACIA), under the conditions recommended by the manufacturer. […] Dermatol. 105, 432, (1995)] at the concentration of 0.2 μg/ml (FIG. 3b).
The results are illustrated by FIG. 3 • Lane 1: BSA (1 hour, 50° C.) • Lane 2: BSA+PAD (1 hour, 50° C.) • Lane 3: fil-gst (1 hour, 50° C.) • Lane 4: fil-gst+PAD (15 minutes, 50° C.) • Lane 5: fil-gst+PAD (15 minutes, 50° C.) • Lane 6: fil-gst+PAD (30 minutes, 50° C.) • Lane 7: fil-gst+PAD (1 hour, 50° C.) • Lane 8: fil-gst+PAD+inhibitor (1 hour, 50° C.)
(In general: Immunoblotting shows a protein as a band on a membrane.)

The test system of experiment [4] is AFAs present in sera from patients suffering from RA. The experiment can be described thus: Immunoblot of fil-gst deiminated in vitro by PAD, revealed with a pool of 5 RA sera. Format: binding, human. The note with it: for recognition by the sera from patients suffering from RA: pool of 5 RA sera 1/2000. The protocol: as §4, §5, §6, §7
The results are illustrated by FIG. 3 • Lane 1: BSA (1 hour, 50° C.) • Lane 2: BSA+PAD (1 hour, 50° C.) • Lane 3: fil-gst (1 hour, […]) • Lane 5: fil-gst+PAD (15 minutes, 50° C.) • Lane 6: fil-gst+PAD (30 minutes, 50° C.) • Lane 7: fil-gst+PAD (1 hour, 50° C.) • Lane 8: fil-gst+PAD+inhibitor (1 hour, 50° C.)

Setting [5] is: Control serum (normal serum) diluted 1/120.
The mark [6] stands for this setting: Pool of AFAs (purified from 45 RA sera), 5 μg/ml.
Setting [7] is: Pool of AFAs (purified from 45 RA sera), 10 μg/ml.
Setting [8] is: Pool of AFAs (purified from 45 RA sera), 20 μg/ml.
Where [9] appears, read: after citrullination (PAD 30 minutes at 50° C.), 0.5 μg antigen per deposit.
Where [10] appears, read: citrullinated (PAD 30 minutes at 50° C.).
Where [11] appears, read: not citrullinated, 0.5 μg antigen per deposit.

In the case of “NH2-ESSRDGSRHPRSHD-COOH (H-ESSRDGSRHPRSHD-OH; not fully specified; printed as NH2-ESSRDGSRHPRSHD-COOH) [Peptide E-12-D]”, the “ratio of OD at 492 nm: citrullinated peptide signal/noncitrullinated peptide signal” value in experiment [1] (setting [5]) is 1.076; in experiment [1] (setting [6]) it was 1.77; in experiment [1] (setting [7]), 1.63; in experiment [1] (setting [8]) it was 1.48; in experiment [1] (RA1 serum, AFAs 10 μg/ml) it was 1.42; in experiment [1] (RA1 serum, AFAs 20 μg/ml), 1.85. Also, the “ratio of OD at 492 nm: citrullinated peptide signal/noncitrullinated peptide signal” value worked out at 2.42 in experiment [1] (RA2 serum, AFAs 5 μg/ml); 3.77 in experiment [1] (RA2 serum, AFAs 10 μg/ml); 5.57 in experiment [1] (RA2 serum, AFAs 20 μg/ml).

With “NH2-STGHSGSQHSHTTTQGRSDASRGSSGSRSTSRETRDQEQSGDGSRHSGS-COOH (H-STGHSGSQHSHTTTQGRSDASRGSSGSRSTSRETRDQEQSGDGSRHSGS-OH; also: citrullinated, positions not given here; listed as Homo sapiens) [Peptide S-47-S, peptide of 49 amino acids, amino acids 71 to 119 of a human filaggrin unit, 6 arginine residues; tested before and after PAD]”, the “recognition by the serum from the patient suffering from RA” value (“recognition by the serum” for short) in experiment [2] (setting [9]) was “recognized”. The “recognition by AHF4” value in the experiment with monoclonal antibody AHF4 (setting [10]) and with monoclonal antibody AHF4 (not citrullinated) was “recognizes” in each case.

Turning to “NH2-SQDRDSQAQSEDSERRSASASRNHRGSAQEQSRDGSR-COOH (H-SQDRDSQAQSEDSERRSASASRNHRGSAQEQSRDGSR-OH; also: citrullinated, positions not given here; listed as Homo sapiens) [Peptide S-35-R, peptide of 37 amino acids, amino acids 155 to 191 of a human filaggrin unit, 7 arginine residues; tested before and after PAD]”, the “recognition by the serum” value in experiment [2] (setting [9]) and in experiment [2] (setting [11]) was “not recognized” each time. Also, the “recognition by AHF4” value in the experiment with monoclonal antibody AHF4 (setting [10]) and in the experiment with monoclonal antibody AHF4 (not citrullinated) was “does not recognize” in each case.

Take “NH2-EQSADSSRHSGSGH-COOH (H-EQSADSS[Cit]HSGSGH-OH) [Peptide E-12-H]”: the “ratio of OD at 492 nm: citrullinated peptide signal/noncitrullinated peptide signal” value in experiment [1] (setting [5]) was 1; in experiment [1] (setting [6]), 2.45; in experiment [1] (setting [7]), 2.42; in experiment [1] (setting [8]), 1.82; in experiment [1] (RA1 serum, AFAs 10 μg/ml) it was 1.32; in experiment [1] (RA1 serum, AFAs 20 μg/ml), 1.20. For the same molecule, the “ratio of OD at 492 nm: citrullinated peptide signal/noncitrullinated peptide signal” value worked out at 10.44 in experiment [1] (RA2 serum, AFAs 5 μg/ml); 11.51 in experiment [1] (RA2 serum, AFAs 10 μg/ml); 8.38 in experiment [1] (RA2 serum, AFAs 20 μg/ml).

Take “AVFs: acido-neutral variants of human epidermal filaggrin [reference compound]”: the “recognition by the serum” value in experiment [2] (natural antigen as such, 0.5 μg per deposit) is reported as “recognizes”.

B1: fil-gst: recombinant human filaggrin unit fused with glutathione S-transferase (GST), expressed in E. coli (protein)
chain: QSESAHGRTGTSTGGRQGSHHKQARDSSRHSTSQEGQDTIHGHPGSSSGGRQGSHYEQLVDRSGHSGSHHSHTTSQGRSDASHGHSGSRSASRQTRNDEQSGDGSRHSGSRHHEASSRADSSGHSQVGQGQSEGPRTSRNWGSSFSQDSDSQGHSEDSERWSGSASRNHHGSAQEQLRDGSRHPRSHQEDRAGHGHSADSSRQSGTRHTQTSSGGQAASSHEQARSSAGERHGSHHQQSADSSRHSGIGHGQASSAVRDSGHRGYSGSQASDNEGHSEDSDTQSVSAHGQAGSHQQSHQESARGRSGETSGHSGSFLYQVSTHE
modifications: left off: a dimerising Fc or GST
notes: recombinant human filaggrin unit fused with glutathione S-transferase (GST), expressed in E. coli
With B1, the “recognition by the serum” value in experiment [2] (setting [11]) is “does not recognize”. The “recognition by AHF4” value in the experiment on monoclonal antibody AHF4 (setting [10]) and in the experiment with monoclonal antibody AHF4 (not citrullinated) was “recognizes” throughout. For the same molecule, the “recognition by monoclonal antibody AHF2” value in experiment [3] (citrullinated) and in experiment [3] (not citrullinated) was “recognizes all the fragments” each time. Further, in experiment [4] (PAD reacted for 60 minutes at 50° C. (lane 7), sera 1/2000), the “reactivity with the pool of RA sera” value is recorded as “increase in reactivity”. Also, the “recognition by the sera from patients suffering from RA” value in experiment [4] (absence of citrullination reaction (1 h, 50° C. without PAD, lane 3)) is on record as “not recognized”; in experiment [4] (from 5 minutes of citrullination with PAD at 50° C. (lane 4)), “detected”.
